Source: patent US20110098296A1, “Thiazole And Oxazole Kinase Inhibitors” (priority 2007, published 2011)
Structures can show the parent of a compound that is named as a salt.

Tests used:
ErbB2 = biological target: T1, ErbB2 (Homo sapiens, UniProt P04626); assay: ErbB-2 substrate phosphorylation assay (HTRF); assay type: biochemical
T1 construct: made in house; host or cells: baculovirus expression system
Procedure: (§1) Compounds of the present invention were tested for EGFR and ErbB-2 protein tyrosine kinase inhibitory activity in substrate phosphorylation assays using enzymes purified from a baculovirus expression system. Reagent production was conducted essentially as described in Brignola, P. S., et al., (2002) J. Biol. Chem. 277(2):1576-1585.
(§2) The method measures the ability of the isolated enzyme to catalyse the transfer of the gamma-phosphate from ATP onto the tyrosine residue of a biotinylated synthetic peptide referenced “Peptide C” in Brignola, P. S., et al., (2002) J. Biol. Chem. 277(2):1576-1585. The extent of tyrosine phosphorylation was measured using an anti-phosphotyrosine antibody, and quantified by homogenous time-resolved fluorescence (HTRF).
(§3) Reactions were performed in black 384-well polystyrene flat-bottom plates in a final volume of 20 μl. Assays were performed by adding 10 μl of each of the following solutions, Substrate Mix and Enzyme Mix: The Substrate Mix contained 100 mM 3-[N-morpholino]propanesulfonic acid (MOPS) (pH 7.5), 2 mM MnCl2, 20 μM ATP, 0.01% Tween-20, 0.1 mg/mL (BSA), 0.8 uM peptide substrate, and 1 mM dithiothreitol. The Enzyme Mix contained 100 mM MOPS (pH 7.5); 0.01% Tween-20; 0.1 mg/mL BSA, and either 0.8 nM EGFR, 10 nM ErbB2, or 1 nM ErbB4
(§4) During the course of these studies, two separate methods have been used to measure the potency of compounds. In Method A (indicated as “(A)” in the tables below), the Enzyme Mix was added to the compound plates and the plates were incubated at 20° C. for 1 hr. The reactions were then started by adding the Substrate Mix. In Method B (indicated as “(B)” in the tables below), the Substrate Mix was added to the compound plates first, then the reaction was started by adding the Enzyme Mix.
(§5) After initiating the reaction with either method describe above, the reactions were allowed to proceed for 90 minutes at 20° C. The reactions were then terminated by the addition of 20 μL 100 mM EDTA to each well. 40 μL/well of HTRF detection mix were added to the assay plates. The final concentrations of the detection reagents were: 100 mM HEPES (pH7.5), 0.1 mg/mL BSA, 15 nM streptavidin-labeled allophycocyanin (PerkinElmer), and 1 nM europium-labeled anti-phosphotyrosine antibody (PerkinElmer). Assay plates were left unsealed and were counted in a Wallac Multilabel Counter 1420 (PerkinElmer).
(§6) Compounds under analysis were dissolved in dimethylsulfoxide (DMSO) to 1.0 mM and serially diluted 1 to 3 with DMSO through twelve dilutions. 1 μL of each concentration was transferred to the corresponding well of an assay plate. This creates a final compound concentration range from 0.00027 to 47.6 μM.
(§7) The data for dose responses were plotted as % Inhibition calculated with the data reduction formula 100*(1−(U1−C2)/(C1−C2)) versus concentration of compound where U1 is the unknown value, C1 is the average control value obtained for 4.76% DMSO, and C2 is the average control value obtained for 0.035 M EDTA. Data were fitted with a curve described by:
(§8) where Vmax is the upper asymptote, Y2 is the Y intercept, and K is the IC50. The results for each compound were recorded as pIC50s, calculated as follows: […]

Colo205 tumor cells = assay: Method C: Cell Growth Inhibition Assay (CellTiter-Glo), Colo205; assay type: cell-based; settings: Homo sapiens, COLO 205, 72 h, 3 days, 4-parameter fit
Procedure: (§9) Human breast tumor cells (BT474) were cultured in RPMI (Mediatech 50-011-PB), containing 10% FBS (JRH Biosciences 12176) and 1% penicillin-streptomycin (Invitrogen 15140). Human head and neck tumor cells (HN5) were cultured in high glucose DMEM (Mediatech 50-013-PB) containing 10% FBS and 1% penicillin-streptomycin. Human colon tumor cells (Colo205) were cultured in RPMI (Mediatech 50-020-PB) containing 10% FBS and 1% penicillin-streptomycin. Human melanoma cancer cells (SK-MEL-28) were cultured in EMEM with nonessential amino acids (Mediatech 50-011-PB) containing 10% FBS, 1% sodium pyruvate (JT Baker 3354-04), and 1% penicillin-streptomycin. Human melanoma cancer cells (A375P F11s) were cultured in RPMI (Mediatech 50-020-PB) containing 10% FBS, 1% sodium pyruvate, and 1% penicillin-streptomycin. Human colon cancer cells (HT-29) were cultured in high glucose DMEM (Mediatech 50-013-PB) containing 10% FBS and 1% penicillin-streptomycin. Human melanoma cancer cells (SK-MEL-3) were cultured in McCoy's 5A (50-025-PB) containing 15% FBS, and 1% penicillin-streptomycin. All cell lines were maintained at 37° C. in a humidified 5% CO2, 95% air incubator. Cells were harvested using trypsin/EDTA (Invitrogen 25200), counted using an haemocytometer, and plated. For 96-well assays (using white full-area NUNC plates cat. #136102), cells were plated in 105 μL at the following densities (cells/well): HN5, 500; Colo205, 500; SK-MEL-28, 500; A375P-F11s, 500; HT-29, 500; SK-MEL-3, 500; and BT474, 3000. For 384-well assays (white full-area NUNC plates, cat. #781080), cells were plated in 48 μL at the following densities (cells/well): HN5, 500; Colo205, 500; SK-MEL-28, 500; A375P-F11s, 500; HT29, 500; SK-MEL-3, 500; and BT474, 2000.
(§10) The next day, compounds were diluted as follow: For 96-well assays, 13.5 μL of compound in DMSO were diluted using nine (9) serial 1:3 dilutions of 4.5 μL in 9 μL of DMSO. Medium (270 μl/well of RPMI with 10% FBS and 1% penicillin-streptomycin) was added to the plates. Aliquots (7 μl) were added to cells in the final assay giving a final DMSO concentration of 0.2%. For 384-well assays, 15 μL of compound in DMSO were diluted using nine (9) serial 1:3 dilutions of 5 μL in 10 μL of DMSO, followed by a further dilution of 5 μL of compound with 95 μL of medium, of which 2 μL were added to cells in the final assay giving a final DMSO concentration of 0.2%. Cells were incubated at 37° C., 5% CO2 for 3 days.
(§11) Total ATP was measured (as a surrogate estimate of cell number) using CellTiter-Glo® reagent (Promega G7571). Briefly, plates were removed from the incubator and allowed to equilibrate to room temperature for 30 minutes. CellTiter-Glo® (25 μL or 55 μL for 384-well or 96-well assays, respectively) reagent was added to each well and plates were shaken on an orbital plate shaker for 2 mins. Plates were incubated without shaking for a further 30 mins and read on an LJL Analyst GT reader in luminometer mode with an integration time of 0.5 seconds per well. Percent inhibition of cell growth was calculated relative to DMSO vehicle-treated control wells. Concentration of compound required to give 50% inhibition of vehicle-treated control cell growth (IC50) was interpolated using a 4-parameter fit for determining IC50 using the following equation: Y=A+((B−A)/(1+((C/X)̂D))) where X=IC50.

EGFR = biological target: T2, EGFR (Homo sapiens, UniProt P00533); assay: EGFR substrate phosphorylation assay (HTRF); assay type: biochemical
T2 construct: made in house; host or cells: baculovirus expression system
T2 sequence (P00533 25-1210): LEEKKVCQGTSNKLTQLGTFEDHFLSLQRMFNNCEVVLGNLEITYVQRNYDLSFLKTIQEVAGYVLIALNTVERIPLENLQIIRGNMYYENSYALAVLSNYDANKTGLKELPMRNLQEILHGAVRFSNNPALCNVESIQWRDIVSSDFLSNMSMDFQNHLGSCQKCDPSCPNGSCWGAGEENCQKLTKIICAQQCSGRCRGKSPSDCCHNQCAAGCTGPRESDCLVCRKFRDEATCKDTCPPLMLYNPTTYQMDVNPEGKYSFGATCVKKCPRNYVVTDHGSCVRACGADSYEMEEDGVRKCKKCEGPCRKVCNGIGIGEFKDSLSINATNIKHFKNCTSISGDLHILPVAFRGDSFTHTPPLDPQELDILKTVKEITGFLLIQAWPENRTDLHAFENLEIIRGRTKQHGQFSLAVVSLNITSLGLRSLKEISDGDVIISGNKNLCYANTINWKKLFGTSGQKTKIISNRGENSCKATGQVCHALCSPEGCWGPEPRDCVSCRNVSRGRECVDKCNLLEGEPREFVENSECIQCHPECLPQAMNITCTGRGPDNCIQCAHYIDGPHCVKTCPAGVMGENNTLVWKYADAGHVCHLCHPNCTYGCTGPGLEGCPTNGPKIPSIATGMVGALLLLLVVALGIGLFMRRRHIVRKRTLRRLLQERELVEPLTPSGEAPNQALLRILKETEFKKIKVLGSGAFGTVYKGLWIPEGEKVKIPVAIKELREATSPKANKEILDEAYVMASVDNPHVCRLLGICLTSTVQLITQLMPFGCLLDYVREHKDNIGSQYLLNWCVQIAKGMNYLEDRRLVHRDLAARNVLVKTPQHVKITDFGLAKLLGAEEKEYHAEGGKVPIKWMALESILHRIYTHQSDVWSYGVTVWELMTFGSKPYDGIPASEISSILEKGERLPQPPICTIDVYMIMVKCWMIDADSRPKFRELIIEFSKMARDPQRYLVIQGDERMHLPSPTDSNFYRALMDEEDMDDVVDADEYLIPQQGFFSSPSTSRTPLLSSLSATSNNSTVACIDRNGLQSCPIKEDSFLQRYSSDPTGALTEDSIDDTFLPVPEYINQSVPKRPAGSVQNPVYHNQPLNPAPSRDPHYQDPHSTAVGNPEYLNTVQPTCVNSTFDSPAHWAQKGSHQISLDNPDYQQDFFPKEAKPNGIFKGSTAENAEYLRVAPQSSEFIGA
Procedure: as §1, §2, §3, §4, §5, §6, §7, §8

BT474 tumor cells = assay: Method C: Cell Growth Inhibition Assay (CellTiter-Glo), BT474; assay type: cell-based; settings: Homo sapiens, BT-474, 72 h, 3 days, 4-parameter fit
Procedure: as §9, §10, §11

SK-MEL-28 tumor cells = assay: Method C: Cell Growth Inhibition Assay (CellTiter-Glo), SK-MEL-28; assay type: cell-based; settings: Homo sapiens, SK-MEL-28, 72 h, 3 days, 4-parameter fit
Procedure: as §9, §10, §11

[1] = Method (A): Enzyme Mix incubated with compound at 20° C. for 1 hr, reaction started by adding Substrate Mix
[2] = Method (B): Substrate Mix added to compound first, reaction started by adding Enzyme Mix

T1 sequence (P04626 23-1255): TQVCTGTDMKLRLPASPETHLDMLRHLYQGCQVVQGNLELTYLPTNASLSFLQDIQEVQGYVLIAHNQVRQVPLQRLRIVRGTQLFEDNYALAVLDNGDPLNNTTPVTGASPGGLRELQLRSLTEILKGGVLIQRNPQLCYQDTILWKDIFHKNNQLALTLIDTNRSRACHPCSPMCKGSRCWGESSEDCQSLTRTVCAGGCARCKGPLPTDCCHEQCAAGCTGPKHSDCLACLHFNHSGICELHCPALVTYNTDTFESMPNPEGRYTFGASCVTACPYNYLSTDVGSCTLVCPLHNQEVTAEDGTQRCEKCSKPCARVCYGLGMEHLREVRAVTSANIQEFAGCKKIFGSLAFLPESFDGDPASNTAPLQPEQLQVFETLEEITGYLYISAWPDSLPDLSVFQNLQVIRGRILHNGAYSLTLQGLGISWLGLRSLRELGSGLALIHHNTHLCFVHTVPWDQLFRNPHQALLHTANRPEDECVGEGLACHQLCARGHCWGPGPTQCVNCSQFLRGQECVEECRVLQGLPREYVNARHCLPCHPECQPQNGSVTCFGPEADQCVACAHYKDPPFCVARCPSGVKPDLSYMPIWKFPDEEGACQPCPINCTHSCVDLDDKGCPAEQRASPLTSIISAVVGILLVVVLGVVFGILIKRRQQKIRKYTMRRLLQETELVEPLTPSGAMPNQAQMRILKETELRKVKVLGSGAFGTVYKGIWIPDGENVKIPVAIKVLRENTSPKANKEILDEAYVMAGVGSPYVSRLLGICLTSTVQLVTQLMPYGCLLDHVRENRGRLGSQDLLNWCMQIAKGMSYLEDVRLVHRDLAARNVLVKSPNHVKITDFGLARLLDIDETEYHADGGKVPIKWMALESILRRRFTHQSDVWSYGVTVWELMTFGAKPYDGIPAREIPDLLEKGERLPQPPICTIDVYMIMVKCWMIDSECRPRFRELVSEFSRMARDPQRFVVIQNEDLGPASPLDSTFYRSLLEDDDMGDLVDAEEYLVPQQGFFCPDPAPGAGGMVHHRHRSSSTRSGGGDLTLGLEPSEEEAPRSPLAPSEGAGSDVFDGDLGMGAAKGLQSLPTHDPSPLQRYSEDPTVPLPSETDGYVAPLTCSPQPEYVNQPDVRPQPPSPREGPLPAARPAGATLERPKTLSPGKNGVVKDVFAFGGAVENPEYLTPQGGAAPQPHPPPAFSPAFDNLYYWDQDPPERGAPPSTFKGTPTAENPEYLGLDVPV

IC50 (ErbB2; [1])	IC50 (Colo205 tumor cells)	IC50 (EGFR; [1])	IC50 (BT474 tumor cells)	IC50 (SK-MEL-28 tumor cells)	IC50 (ErbB2; [2])	IC50 (EGFR; [2])	SMILES
< 100 nM	> 1000 nM	< 100 nM	> 1000 nM	> 1000 nM			CN(C)CCOc1ccc(Nc2nccc(-c3sc(NS(=O)(=O)CC(F)(F)F)nc3-c3cccc(NC(=O)c4c(F)cccc4F)c3)n2)cc1 [Example 35, N-[3-(5-{2-[(4-{[2-(Dimethylamino)ethyl]oxy}phenyl)amino]-4-pyrimidinyl}-2-{[(2,2,2-trifluoroethyl)sulfonyl]amino}-1,3-thiazol-4-yl)phenyl]-2,6-difluorobenzamide]
< 100 nM	> 1000 nM	< 100 nM		> 1000 nM			CN(C)c1nc(-c2cccc(NC(=O)c3c(F)cccc3F)c2)c(-c2ccnc(Nc3ccc(N4CCOCC4)c(Cl)c3)n2)s1 [Example 41, N-{3-[5-(2-{[3-Chloro-4-(4-morpholinyl)phenyl]amino}-4-pyrimidinyl)-2-(dimethylamino)-1,3-thiazol-4-yl]phenyl}-2,6-difluorobenzamide trifluoroacetate]
< 100 nM	100 to 1000 nM	< 100 nM		> 1000 nM			CN(C)c1nc(-c2cccc(NC(=O)c3c(F)cccc3F)c2)c(-c2ccnc(Nc3ccc(OCCN4CCCC4)nc3)n2)s1 [Example 43, N-[3-(2-(Dimethylamino)-5-{2-[(6-{[2-(1-pyrrolidinyl)ethyl]oxy}-3-pyridinyl)amino]-4-pyrimidinyl}-1,3-thiazol-4-yl)phenyl]-2,6-difluorobenzamide]
< 100 nM	> 1000 nM	< 100 nM	100 to 1000 nM	> 1000 nM			Cc1nc(-c2cccc(NC(=O)c3c(F)cccc3F)c2)c(-c2ccnc(Nc3ccc(OCCN4CCCC4)c(Cl)c3)n2)s1 [Example 110, N-[3-(5-{2-[(3-Chloro-4-{[2-(1-pyrrolidinyl)ethyl]oxy}phenyl)amino]-4-pyrimidinyl}-2-methyl-1,3-thiazol-4-yl)phenyl]-2,6-difluorobenzamide]
< 100 nM	> 1000 nM	< 100 nM	100 to 1000 nM	> 1000 nM			CCc1nc(-c2cccc(NC(=O)c3c(F)cccc3F)c2)c(-c2ccnc(Nc3ccc(OCCN4CCCC4)c(F)c3)n2)s1 [Example 117, N-[3-(2-Ethyl-5-{2-[(3-fluoro-4-{[2-(1-pyrrolidinyl)ethyl]oxy}phenyl)amino]-4-pyrimidinyl}-1,3-thiazol-4-yl)phenyl]-2,6-difluorobenzamide]
< 100 nM	> 1000 nM	< 100 nM		> 1000 nM			O=C(Nc1cccc(-c2nc(CF)sc2-c2ccnc(Nc3ccc(OCCN4CCCC4)c(F)c3)n2)c1)c1c(F)cccc1F [Example 127]

Further lines, the molecule ahead of its results:

SMILES	IC50 (ErbB2; [1])	IC50 (Colo205 tumor cells)	IC50 (EGFR; [1])	IC50 (BT474 tumor cells)	IC50 (SK-MEL-28 tumor cells)	IC50 (ErbB2; [2])	IC50 (EGFR; [2])
CN1CCN(c2nc(-c3cccc(NC(=O)c4c(F)cccc4F)c3)c(-c3ccnc(Nc4cccc(CN5CCCC5)c4)n3)s2)CC1 [Example 46, 2,6-Difluoro-N-{3-[2-(4-methyl-1-piperazinyl)-5-(2-{[3-(1-pyrrolidinylmethyl)phenyl]amino}-4-pyrimidinyl)-1,3-thiazol-4-yl]phenyl}benzamide]	< 100 nM	100 to 1000 nM	< 100 nM	100 to 1000 nM	> 1000 nM		
O=C(Nc1cccc(-c2nc(N3CCC3)sc2-c2ccnc(Nc3ccc(OCCN4CCCC4)c(Cl)c3)n2)c1)c1c(F)cccc1F [Example 47, N-[3-(2-(1-Azetidinyl)-5-{2-[(3-chloro-4-{[2-(1-pyrrolidinyl)ethyl]oxy}phenyl)amino]-4-pyrimidinyl}-1,3-thiazol-4-yl)phenyl]-2,6-difluorobenzamide]	< 100 nM	> 1000 nM	< 100 nM	> 1000 nM	> 1000 nM		
O=C(Nc1cccc(-c2nc(N3CCCCC3)sc2-c2ccnc(Nc3cccc(CN4CCCC4)c3)n2)c1)c1c(F)cccc1F [Example 73, 2,6-Difluoro-N-{3-[2-(1-piperidinyl)-5-(2-{[3-(1-pyrrolidinylmethyl)phenyl]amino}-4-pyrimidinyl)-1,3-thiazol-4-yl]phenyl}benzamide]	< 100 nM	100 to 1000 nM	< 100 nM	100 to 1000 nM	> 1000 nM		
CCc1nc(-c2cccc(NC(=O)c3c(F)cccc3F)c2)c(-c2ccnc(Nc3ccc(N4CCC(N5CCCCC5)CC4)c(F)c3)n2)s1 [Example 116, N-{3-[5-(2-{[4-(1,4′-Bipiperidin-1′-yl)-3-fluorophenyl]amino}-4-pyrimidinyl)-2-ethyl-1,3-thiazol-4-yl]phenyl}-2,6-difluorobenzamide]	< 100 nM	100 to 1000 nM	< 100 nM		> 1000 nM		
O=C(Nc1cccc(-c2ncoc2-c2ccnc(Nc3cccc(F)c3)n2)c1)c1c(F)cccc1F [Example 141, 2,6-Difluoro-N-[3-(5-{2-[(3-fluorophenyl)amino]-4-pyrimidinyl}-1,3-oxazol-4-yl)phenyl]benzamide]						> 1000 nM	> 1000 nM
